The IC50 is the concentration that gives 50% inhibition. Read a low IC50 as greater potency in that assay.

The record followed here is patent publication US9115127B2 (AMGEN INC., priority 2010, dated 2015).

Structures can show the parent of a compound that is named as a salt.

T1 sequence (Q9UM73 1058-1620): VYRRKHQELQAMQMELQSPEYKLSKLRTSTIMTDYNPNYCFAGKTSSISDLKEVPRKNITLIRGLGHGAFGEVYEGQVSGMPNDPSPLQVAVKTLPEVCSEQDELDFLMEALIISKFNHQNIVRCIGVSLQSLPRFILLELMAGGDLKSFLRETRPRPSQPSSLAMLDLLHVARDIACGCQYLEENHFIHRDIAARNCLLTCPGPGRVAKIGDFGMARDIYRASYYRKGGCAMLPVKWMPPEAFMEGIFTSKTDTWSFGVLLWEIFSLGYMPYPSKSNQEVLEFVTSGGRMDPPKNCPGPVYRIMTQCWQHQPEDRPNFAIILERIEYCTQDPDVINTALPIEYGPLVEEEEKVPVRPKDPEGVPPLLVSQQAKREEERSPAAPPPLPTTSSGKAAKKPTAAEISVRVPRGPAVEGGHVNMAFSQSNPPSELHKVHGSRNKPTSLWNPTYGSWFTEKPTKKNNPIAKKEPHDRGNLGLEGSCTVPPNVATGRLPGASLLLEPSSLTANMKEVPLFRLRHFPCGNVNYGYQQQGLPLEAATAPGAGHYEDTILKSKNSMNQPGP

The test has as its target T1, wild-type human ALK (cytoplasmic domain, amino acids 1058-1620, N-terminal GST fusion) (Homo sapiens, UniProt Q9UM73).
T1 construct: The cytoplasmic domain (amino acids 1058-1620) of wild-type human ALK; GST (N); made in house; host or cells: SF9 insect cells
Nature of the test: ALK Inhibition in Enzyme Assay (Lance TR-FRET kinase assay). It is filed as biochemical. Here is the method:
ALK Inhibition in Enzyme Assay
Kinase activity of the purified protein was assessed using a Lance® TR-FRET assay. […] The reaction was allowed to proceed for 90 minutes at room temperature and was then terminated with 20 mM EDTA in 50 mM Tris (pH 7.5), 100 mM NaCl, 0.05% BSA, and 0.1% Tween-20. Phosphorylation of the peptide substrate was detected using the Lance® detection reagents streptavidin-allophycocyanin (SA-APC) and Eu-W1024 anti-phosphotyrosine antibody (PT66) from Perkin Elmer Life Sciences (Waltham, Mass.). The plates were read on a RUBY star plate reader (BMG LABTECH, Cary, N.C.) with an excitation wavelength of 320 nm.
In general terms: In TR-FRET formats the signal depends on donor and acceptor labels being close together.
`CC(C)NC(=O)[C@H]1CC[C@@H](n2/c(=N/C(=O)c3ccc(F)cc3)[nH]c3ccc(-n4cncn4)cc32)CC1` [Example 221, (E)-4-Fluoro-N-(1-(cis-4-(isopropylcarbamoyl)cyclohexyl)-6-(1H-1,2,4-triazol-1-yl)-1H-benzo[d]imidazol-2(3H)-ylidene)benzamide]: the IC50 is < 0.05 µM.

In the case of `CC(C)NC(=O)[C@H]1CC[C@@H](n2/c(=N/C(=O)c3cc(F)cc(C#N)c3)[nH]c3cnc(OCCN4CCCCC4)cc32)CC1` [Example 111, (E)-3-Cyano-5-fluoro-N-(1-(cis-4-(isopropylcarbamoyl)cyclohexyl)-6-(2-(piperidin-1-yl)ethoxy)-1H-imidazo[4,5-c]pyridin-2(3H)-ylidene)benzamide], the IC50 was < 0.05 µM.

In the case of `C=CCNS(=O)(=O)c1cccc(C(=O)/N=c2\[nH]c3ccc(CN4CCC(C(C)(C)O)CC4)cc3n2[C@H]2CC[C@H](C(N)=O)CC2)c1` [Example 235, (E)-3-(N-Allylsulfamoyl)-N-(1-(trans-4-carbamoylcyclohexyl)-6-((4-(2-hydroxypropan-2-yl)piperidin-1-yl)methyl)-1H-benzo[d]imidazol-2(3H)-ylidene)benzamide], the IC50 was < 0.05 µM.

The compound `CC(C)NC(=O)[C@H]1CC[C@@H](n2/c(=N/C(=O)N3CCOCC3)[nH]c3cnc(OCCN4CCCCC4)cc32)CC1` [Example 133, (E)-N-(1-(cis-4-(Isopropylcarbamoyl)cyclohexyl)-6-(2-(piperidin-1-yl)ethoxy)-1H-imidazo[4,5-c]pyridin-2(3H)-ylidene)morpholine-4-carboxamide] had an IC50 of 0.1 to 1 µM.

As for `CC(C)NC(=O)[C@H]1CC[C@@H](n2/c(=N/C(=O)c3ccc(F)cc3)[nH]c3ccc(OCCN4CCCCC4)cc32)CC1` [Example 155, (E)-4-Fluoro-N-(1-(cis-4-(isopropylcarbamoyl)cyclohexyl)-6-(2-(piperidin-1-yl)ethoxy)-1H-benzo[d]imidazol-2(3H)-ylidene)benzamide], the IC50 was < 0.05 µM.

As to `CC(C)CN1CCC(n2/c(=N/C(=O)c3ccccc3)[nH]c3cnc(OCCN4CCCCC4)cc32)CC1` [Example 68, (E)-N-(1-(1-Isobutylpiperidin-4-yl)-6-(2-(piperidin-1-yl)ethoxy)-1H-imidazo[4,5-c]pyridin-2(3H)-ylidene)benzamide], the IC50 was in the range of 5 to 10 µM.

`CC(C)NC(=O)[C@H]1CC[C@@H](n2/c(=N/C(=O)c3cc(F)cc(F)c3)[nH]c3cnc(OCCN4CCCCC4)cc32)CC1` [Example 98, (E)-3,5-Difluoro-N-(1-(cis-4-(isopropylcarbamoyl)cyclohexyl)-6-(2-(piperidin-1-yl)ethoxy)-1H-imidazo[4,5-c]pyridin-2(3H)-ylidene)benzamide]: the IC50 is < 0.05 µM.

As for `N#C[C@]1(c2ccccn2)C[C@@H](n2/c(=N/C(=O)c3ccc(F)cc3)[nH]c3cnc(OCCN4CCCCC4)cc32)C1` [Example 240, (E)-N-(1-(trans-3-Cyano-3-(pyridin-2-yl)cyclobutyl)-6-(2-(piperidin-1-yl)ethoxy)-1H-imidazo[4,5-c]pyridin-2(3H)-ylidene)-4-fluorobenzamide], the IC50 lay in the range of 1 to 5 µM.

For the compound `CC(=O)[C@H]1CC[C@@H](n2/c(=N/C(=O)c3cccc(F)c3)[nH]c3ccc(CN4CCC(C(C)(C)O)CC4)cc32)CC1` [Example 71, (E)-N-(1-(cis-4-Acetylcyclohexyl)-6-((4-(2-hydroxypropan-2-yl)piperidin-1-yl)methyl)-1H-benzo[d]imidazol-2(3H)-ylidene)-3-fluorobenzamide], the IC50 lay within 0.1 to 1 µM.

On to `CC(C)NC(=O)[C@H]1CC[C@@H](n2/c(=N/C(=O)c3ccc(F)cc3)[nH]c3ccc(CO)cc32)CC1` [Example 170, (E)-4-Fluoro-N-(6-(hydroxymethyl)-1-(cis-4-(isopropylcarbamoyl)cyclohexyl)-1H-benzo[d]imidazol-2(3H)-ylidene)benzamide], for which the 50% inhibitory concentration (IC50) is < 0.05 µM.

Turning to `CC[N+](CC)(CC)Cc1ccc2[nH]/c(=N\C(=O)c3ccc(F)cc3)n([C@H]3CC[C@@H](C(=O)NC(C)C)CC3)c2c1` [Example 187, N,N-Diethyl-N-(((E)-2-(4-fluorobenzoylimino)-3-(cis-4-(isopropylcarbamoyl)cyclohexyl)-2,3-dihydro-1H-benzo[d]imidazol-5-yl)methyl)ethanaminium chloride], the IC50 was < 0.05 µM.

With `NC(=O)[C@]1(c2cccc(Br)c2)C[C@H](n2/c(=N/C(=O)c3ccc(F)cc3)[nH]c3cnc(OCCN4CCCCC4)cc32)C1` [Example 252, (E)-N-(1-(cis-3-(3-Bromophenyl)-3-carbamoylcyclobutyl)-6-(2-(piperidin-1-yl)ethoxy)-1H-imidazo[4,5-c]pyridin-2(3H)-ylidene)-4-fluorobenzamide], the IC50 is 1 to 5 µM.

As to `O=C(/N=c1\[nH]c2ccc(CN3CCCCC3)cc2n1[C@H]1CC[C@@H](C(=O)NCC2CC2)CC1)c1ccc(F)cc1` [Example 32, (E)-N-(1-(cis-4-(Cyclopropylmethylcarbamoyl)cyclohexyl)-6-(piperidin-1-ylmethyl)-1H-benzo[d]imidazol-2(3H)-ylidene)-4-fluorobenzamide], the IC50 is < 0.05 µM.

Compound `CC(C)NC(=O)[C@H]1CC[C@@H](n2/c(=N/C(=O)c3ccccn3)[nH]c3cnc(OCCN4CCCCC4)cc32)CC1` [Example 110, (E)-N-(1-(cis-4-(Isopropylcarbamoyl)cyclohexyl)-6-(2-(piperidin-1-yl)ethoxy)-1H-imidazo[4,5-c]pyridin-2(3H)-ylidene)picolinamide] showed an IC50 of 1 to 5 µM.

With `COCc1ccc2[nH]/c(=N\C(=O)c3ccc(F)cc3)n([C@H]3CC[C@@H](C(=O)NC(C)C)CC3)c2c1` [Example 192, (E)-4-Fluoro-N-(1-(cis-4-(isopropylcarbamoyl)cyclohexyl)-6-(methoxymethyl)-1H-benzo[d]imidazol-2(3H)-ylidene)benzamide], the IC50 is < 0.05 µM.

On to `C=CCNS(=O)(=O)c1cccc(C(=O)/N=c2\[nH]c3cnc(OCCN4CCCCC4)cc3n2[C@H]2CC[C@@H](C(=O)NC(C)C)CC2)c1` [Example 99, (E)-3-(N-Allylsulfamoyl)-N-(1-(cis-4-(isopropylcarbamoyl)cyclohexyl)-6-(2-(piperidin-1-yl)ethoxy)-1H-imidazo[4,5-c]pyridin-2(3H)-ylidene)benzamide], for which the IC50 fell in the range of 0.1 to 1 µM.

Regarding `COCCOCc1ccc2[nH]/c(=N\C(=O)c3ccc(F)cc3)n([C@H]3CC[C@@H](C(=O)NC(C)C)CC3)c2c1` [Example 198, (E)-4-Fluoro-N-(1-(cis-4-(isopropylcarbamoyl)cyclohexyl)-6-((2-methoxyethoxy)methyl)-1H-benzo[d]imidazol-2(3H)-ylidene)benzamide], the IC50 was < 0.05 µM.

On to `CC(C)NC(=O)[C@H]1CC[C@@H](n2/c(=N/C(=O)c3ccc(F)cc3)[nH]c3cnc(S(C)(=O)=O)cc32)CC1` [Example 236, (E)-4-Fluoro-N-(1-(cis-4-(isopropylcarbamoyl)cyclohexyl)-6-(methylsulfonyl)-1H-imidazo[4,5-c]pyridin-2(3H)-ylidene)benzamide], for which the IC50 is < 0.05 µM.

With `CC(C)NC(=O)[C@H]1CC[C@@H](n2/c(=N/C(=O)c3ccc(F)cc3)[nH]c3cnc(NCCN4CCOCC4)cc32)CC1` [Example 163, (E)-4-Fluoro-N-(1-(cis-4-(isopropylcarbamoyl)cyclohexyl)-6-(2-morpholinoethylamino)-1H-imidazo[4,5-c]pyridin-2(3H)-ylidene)benzamide], the IC50 is < 0.05 µM.

With `C=CCNS(=O)(=O)c1cc(C(=O)/N=c2\[nH]c3ccc(CN4CCCCC4)cc3n2[C@H]2CC[C@@H](C(N)=O)CC2)ccc1F` [Example 38, (E)-3-(N-Allylsulfamoyl)-N-(1-(cis-4-carbamoylcyclohexyl)-6-(piperidin-1-ylmethyl)-1H-benzo[d]imidazol-2(3H)-ylidene)-4-fluorobenzamide], the IC50 is < 0.05 µM.

Consider `COC(=O)[C@H]1CC[C@@H](n2/c(=N/C(=O)c3ccc(F)cc3)[nH]c3ccc(CN4CCC(C(C)(C)O)CC4)cc32)CC1` [Example 209, cis-Methyl 4-((E)-2-(4-fluorobenzoylimino)-6-((4-(2-hydroxypropan-2-yl)piperidin-1-yl)methyl)-2,3-dihydro-1H-benzo[d]imidazol-1-yl)cyclohexanecarboxylate], for which the IC50 was < 0.05 µM.

As to `CC(C)(C)NC(=O)[C@H]1CC[C@@H](n2c(NC(=O)c3ccccc3)nc3ccc(CN4CCCCC4)cc32)CC1` [Example 29, N-(1-(cis-4-(tert-Butylcarbamoyl)cyclohexyl)-6-(piperidin-1-ylmethyl)-1H-benzo[d]imidazol-2-yl)benzamide], the IC50 was < 0.05 µM.

Turning to `CC(C)NC(=O)[C@H]1CC[C@@H](n2/c(=N/C(=O)c3ccc(F)cc3)[nH]c3ccc(CN4CCC[C@@H]4C(=O)O)cc32)CC1` [Example 53, (R)-1-(((E)-2-(4-Fluorobenzoylimino)-3-(cis-4-(isopropylcarbamoyl)cyclohexyl)-2,3-dihydro-1H-benzo[d]imidazol-5-yl)methyl)pyrrolidine-2-carboxylic acid hydrochloride], the IC50 was < 0.05 µM.

On to `CC(C)NC(=O)[C@H]1CC[C@@H](n2/c(=N/C(=O)c3ccc(F)cc3)[nH]c3ccc(Cn4cnnc4)cc32)CC1` [Example 195, (E)-N-(6-((4H-1,2,4-Triazol-4-yl)methyl)-1-(cis-4-(isopropylcarbamoyl)cyclohexyl)-1H-benzo[d]imidazol-2(3H)-ylidene)-4-fluorobenzamide], for which the IC50 was < 0.05 µM.

As for `CC(C)NC(=O)[C@H]1CC[C@@H](n2/c(=N/C(=O)c3ccc(F)cc3)[nH]c3ccc(S(C)(=O)=O)cc32)CC1` [Example 238, (E)-4-Fluoro-N-(1-(cis-4-(isopropylcarbamoyl)cyclohexyl)-6-(methylsulfonyl)-1H-benzo[d]imidazol-2(3H)-ylidene)benzamide], the IC50 is < 0.05 µM.
